Source: patent publication US8927717B1, “Thiochromeno[2,3-c]quinolin-12-one derivatives, preparation method and application thereof” (National Defense Medical Center, priority 2014, dated 2015)

Experiments:
Assay type in all cases: cell-based
MOLT-4 = details: MOLT-4
SF-295 = details: SF-295
HS 578T = details: HS 578T
LOX IMVI = details: LOX IMVI
NCI-H460 = details: NCI-H460
UO-31 = details: UO-31
SNB-75 = details: SNB-75
SK-OV-3 = details: SK-OV-3
HL-60(TB) = details: HL-60(TB); 10^−5 molar
HCT-116 = details: HCT-116
K-562 = details: K-562
MDA-MB-486 = details: MDA-MB-486
BT-549 = details: BT-549
A549/ATCC = details: A549/ATCC
SN12C = details: SN12C
786-0 = details: 786-0
RXF 393 = details: RXF 393
NCI-H23 = details: NCI-H23
CCRF-CEM = details: CCRF-CEM
COLO 205 = details: COLO 205
OVCAR-8 = details: OVCAR-8
MDA-MB-231/ATCC = details: MDA-MB-231/ATCC
T-47D = details: T-47D
DU-145 = details: DU-145
60 cancer cell lines = experiment: NCI 60-cell screen, SRB, whole panel (mean, delta, range)
RPMI-8226 = details: RPMI-8226
HCT-15 = details: HCT-15
SR = details: SR
SW-620 = details: SW-620
MCF7 = details: MCF7
U251 = details: U251
ACHN = details: ACHN
HT29 = details: HT29
NCI-H226 = details: NCI-H226
KM12 = experiment: cells; details: KM12
PC-3 = details: PC-3
SK-MEL-5 = details: SK-MEL-5
HOP-62 = details: HOP-62
NCI-H522 = details: NCI-H522
[1] = Homo sapiens, five dose, read-out: LC50 (the source's name)

`O=c1c2cc(Cl)ccc2sc2c(NCCCNCCO)nc3ccccc3c12` [Compound N19, 10-Chloro-6-((3-((2-hydroxyethyl)amino)propyl)amino)-12H-thiochromeno[2,3-c]quinolin-12-one] gave a GI50 (MOLT-4; Homo sapiens, five dose) of 1880 nM, a Growth percent (MOLT-4; 10^−5 molar) of −47.57% and a GI50 (SF-295; Homo sapiens, five dose) of 1730 nM. For the same compound, the Growth percent (SF-295; 10^−5 molar) was −93.00%, the TGI (SF-295; five dose) was 3330 nM and the Growth percent (HS 578T; 10^−5 molar) was 64.69%. It also gave a TGI (HS 578T; five dose) of 3530 nM, a GI50 (HS 578T; Homo sapiens, five dose) of 1290 nM and a CC50 (HS 578T; [1]) of 9640 nM. The GI50 (LOX IMVI; Homo sapiens, five dose) was 1800 nM, the Growth percent (LOX IMVI; 10^−5 molar) was −82.79% and the TGI (LOX IMVI; five dose) was 3800 nM. It also gave a GI50 (NCI-H460; Homo sapiens, five dose) of 1660 nM, a Growth percent (NCI-H460; 10^−5 molar) of −80.98% and a TGI (NCI-H460; five dose) of 3350 nM. The GI50 (UO-31; Homo sapiens, five dose) was 1360 nM, the CC50 (UO-31; [1]) was 6350 nM and the Growth percent (UO-31; 10^−5 molar) was 24.54%. The TGI (UO-31; five dose) was 2940 nM, the GI50 (SNB-75; Homo sapiens, five dose) was 1280 nM and the Growth percent (SNB-75; 10^−5 molar) was 23.66%. It also gave a TGI (SNB-75; five dose) of 2560 nM, a GI50 (SK-OV-3; Homo sapiens, five dose) of 1680 nM and a CC50 (SK-OV-3; [1]) of 6800 nM. For the same compound, the Growth percent (SK-OV-3; 10^−5 molar) was 76.48%, the TGI (SK-OV-3; five dose) was 3380 nM and the Growth percent (HL-60(TB)) was −37.88%. It also gave a Growth percent (HCT-116; 10^−5 molar) of −91.19%, a TGI (HCT-116; five dose) of 3050 nM and a GI50 (HCT-116; Homo sapiens, five dose) of 1600 nM. The GI50 (K-562; Homo sapiens, K562, five dose) was 1730 nM, the CC50 (K-562; Homo sapiens, K562, five dose, read-out: LC50 (the source's name)) was over 100000 nM and the Growth percent (K-562; 10^−5 molar) was −66.94%. For the same compound, the GI50 (MDA-MB-486; 60 cell, five dose) was 1060 nM, the CC50 (MDA-MB-486; 60 cell, five dose, read-out: LC50 (the source's name)) was 6200 nM and the Growth percent (MDA-MB-486; 10^−5 molar) was −24.00%. It also gave a TGI (MDA-MB-486; five dose) of 2560 nM, a Growth percent (BT-549; 10^−5 molar) of 98.48% and a TGI (BT-549; five dose) of 3150 nM. It also gave a GI50 (BT-549; Homo sapiens, five dose) of 1670 nM, a Growth percent (A549/ATCC; 10^−5 molar) of −64.45% and a TGI (A549/ATCC; five dose) of 3300 nM. For the same compound, the GI50 (A549/ATCC; Homo sapiens, five dose) was 1760 nM, the GI50 (SN12C; Homo sapiens, five dose) was 1700 nM and the CC50 (SN12C; [1]) was 6800 nM. For the same compound, the Growth percent (SN12C; 10^−5 molar) was 78.75%, the TGI (SN12C; five dose) was 3390 nM and the Growth percent (786-0; 10^−5 molar) was −17.60%. The TGI (786-0; five dose) was 3370 nM, the GI50 (786-0; Homo sapiens, five dose) was 1720 nM and the GI50 (RXF 393; Homo sapiens, five dose) was 1640 nM. For the same compound, the Growth percent (RXF 393; 10^−5 molar) was 43.67%, the TGI (RXF 393; five dose) was 3200 nM and the GI50 (NCI-H23; Homo sapiens, five dose) was 1890 nM. For the same compound, the Growth percent (NCI-H23; 10^−5 molar) was 54.26%, the TGI (NCI-H23; five dose) was 3680 nM and the Growth percent (CCRF-CEM; 10^−5 molar) was −54.78%. The TGI (CCRF-CEM; five dose) was 3800 nM, the GI50 (CCRF-CEM; Homo sapiens, five dose) was 1830 nM and the Growth percent (COLO 205; 10^−5 molar) was −87.17%. For the same compound, the TGI (COLO 205; five dose) was 3370 nM, the GI50 (COLO 205; Homo sapiens, five dose) was 1630 nM and the GI50 (OVCAR-8; Homo sapiens, five dose) was 1750 nM. For the same compound, the Growth percent (OVCAR-8; 10^−5 molar) was 9.89%, the TGI (OVCAR-8; five dose) was 3320 nM and the GI50 (MDA-MB-231/ATCC; Homo sapiens, five dose) was 1360 nM. The CC50 (MDA-MB-231/ATCC; [1]) was 6020 nM, the Growth percent (MDA-MB-231/ATCC; 10^−5 molar) was −66.53% and the TGI (MDA-MB-231/ATCC; five dose) was 2860 nM. For the same compound, the GI50 (T-47D; Homo sapiens, T47D, five dose) was 1500 nM, the Growth percent (T-47D; 10^−5 molar) was 16.26% and the TGI (T-47D; five dose) was 3430 nM. The Growth percent (DU-145; 10^−5 molar) was −71.03%, the TGI (DU-145; five dose) was 3310 nM and the GI50 (DU-145; Homo sapiens, five dose) was 1760 nM. The CC50 (DU-145; [1]) was 6250 nM, the GI50 (60 cancer cell lines; 60 cell, mean over panel, five dose) was 1660 nM and the CC50 (60 cancer cell lines; 60 cell, mean over panel, five dose, read-out: LC50, Mean) was 9550 nM. For the same compound, the “Growth percent, Delta” value (60 cancer cell lines; delta over panel, 10^−5 molar) was 75.63%, the “Growth percent, Mean” value (60 cancer cell lines; mean over panel, 10^−5 molar) was −21.33% and the “TGI, Mean” value (60 cancer cell lines; mean over panel, five dose) was 3390 nM. The “Growth percent, Range” value (60 cancer cell lines; range over panel, 10^−5 molar) was 195.44%, the GI50 (RPMI-8226; Homo sapiens, five dose) was 1840 nM and the Growth percent (RPMI-8226; 10^−5 molar) was 5.53%. It also gave a TGI (RPMI-8226; five dose) of 4210 nM, a Growth percent (HCT-15; 10^−5 molar) of −76.47% and a TGI (HCT-15; five dose) of 3250 nM. The GI50 (HCT-15; Homo sapiens, five dose) was 1610 nM, the GI50 (SR; Homo sapiens, five dose) was 1980 nM and the Growth percent (SR; 10^−5 molar) was −51.40%. It also gave a TGI (SR; five dose) of 4550 nM, a GI50 (SW-620; Homo sapiens, five dose) of 1630 nM and a Growth percent (SW-620; 10^−5 molar) of −81.48%. The TGI (SW-620; five dose) was 3300 nM, the GI50 (MCF7; Homo sapiens, five dose) was 1050 nM and the Growth percent (MCF7; 10^−5 molar) was −72.49%. The TGI (MCF7; five dose) was 2600 nM, the GI50 (U251; Homo sapiens, U-251, five dose) was 1730 nM and the Growth percent (U251; 10^−5 molar) was −66.76%. It also gave a TGI (U251; five dose) of 3220 nM, a Growth percent (ACHN; 10^−5 molar) of −96.96% and a TGI (ACHN; five dose) of 3220 nM. For the same compound, the GI50 (ACHN; Homo sapiens, five dose) was 1670 nM, the Growth percent (HT29; 10^−5 molar) was −83.53% and the TGI (HT29; five dose) was 4000 nM. It also gave a GI50 (HT29; Homo sapiens, HT-29, five dose) of 2050 nM, a GI50 (NCI-H226; Homo sapiens, five dose) of 1900 nM and a Growth percent (NCI-H226; 10^−5 molar) of 86.75%. It also gave a TGI (NCI-H226; five dose) of 4460 nM, a GI50 (KM12; Homo sapiens, five dose) of 1670 nM and a Growth percent (KM12; 10^−5 molar) of −83.29%. For the same compound, the TGI (KM12; five dose) was 3310 nM, the GI50 (PC-3; Homo sapiens, five dose) was 1510 nM and the CC50 (PC-3; [1]) was 5660 nM. It also gave a Growth percent (PC-3; 10^−5 molar) of −26.98%, a TGI (PC-3; five dose) of 2920 nM and a GI50 (SK-MEL-5; Homo sapiens, five dose) of 1600 nM. For the same compound, the Growth percent (SK-MEL-5; 10^−5 molar) was 62.02%, the TGI (SK-MEL-5; five dose) was 3000 nM and the Growth percent (HOP-62; 10^−5 molar) was 36.97%. For the same compound, the TGI (HOP-62; five dose) was 2890 nM, the GI50 (HOP-62; Homo sapiens, five dose) was 1380 nM and the GI50 (NCI-H522; Homo sapiens, five dose) was 1850 nM. The Growth percent (NCI-H522; 10^−5 molar) was −59.68% and the TGI (NCI-H522; five dose) was 3560 nM.
